# Test results reported in publication PMC4845862, “Quantification of active mitochondrial permeability transition pores using GNX-4975 inhibitor titrations provides insights into molecular identity” (Biochemical Journal, 2016).
# Test system: adenine nucleotide translocase (ANT)
# Test: Binding of solubilized heart IMM proteins to immobilized phenylarsine oxide (Western blot of ANT)
# Parameters: species or system beef and pig
# Details: heart mitochondria treated with 10 μM CAT prior to IMM isolation and solubilization
# Description: Centrifugation steps in this process were carried out using a benchtop Eppendorf 5415R centrifuge at 4°C. Mitochondria were washed in ISB and centrifuged at 12 000 g for 5 min before re-suspension in ISB containing protease inhibitors (4 μg/ml each of antipan, pepstatin A and leupeptin plus 0.5 mM benzamidine and 0.5 mM PMSF). Mitochondria were incubated with digitonin (0.12 mg/mg of mitochondrial protein) at 4°C for 15 min on a rotary mixer, and the resulting mitoplasts collected by centrifugation at 9000 g for 10 min before resuspension in ISB containing protease inhibitors and PEG ether W1 (Sigma P7516, formerly known as Lubrol) at 0.16 mg/mg of mitochondrial protein. […]
# An immobilized PAO matrix was synthesized by coupling 4-aminophenylarsine oxide to Affi-gel 10 (Bio-Rad Laboratories 153-6099) as described previously. The resin was washed twice in 10 volumes of PAO column buffer (PCB: 150 mM Na2SO4, 50 mM HEPES and 1 mM EGTA, pH 7.2) containing 0.5% (v/v) Triton X-100 and then resuspended to give a 50% (v/v) slurry ready for use. […] Samples were analysed by SDS/PAGE and Western blotting or analysed by Orbitrap MS in the University of Bristol Proteomics Facility. […] The integrated optical density for each band was calculated as the product of the ‘area’ and ‘mean grey value’ with subtraction of a background signal obtained for an equivalent adjacent area lacking any band. […]
compound,measurement,value
"C=C1[C@@H]2CC[C@H]3[C@]4(C)C[C@H](O[C@@H]5O[C@H](CO)[C@@H](OS(=O)(=O)O)[C@H](OS(=O)(=O)O)[C@H]5OC(=O)CC(C)C)CC(C(=O)O)(C(=O)O)[C@H]4CC[C@]3(C2)[C@H]1O [CAT, carboxyatractyloside]",ANT binding to the PAO column,totally prevented
